Data reported in patent publication US7718611B2, “Cyclic nonapeptide amides” (priority 2004, dated 2010).
Converted amounts (≈) assume the structure as drawn. Like-named read-outs stand apart in the source and are kept apart here. Starred links: 1 amine or outer side, 2 acyl side, 3 side chain; linkers in the order of their positions; H or OH if unused. Positions of bridges follow the written chain, without caps; N, C: chain ends. Non-standard residues stand in square brackets, D forms with d. Residues, ends and D or L forms follow the SMILES beside them. Phe(3R-OH) = O=C([C@@H](N[*:1])[C@H](O[*:3])c1ccccc1)[*:2]; Phe(βR-NH) = O=C([C@@H](N[*:1])[C@H](N[*:3])c1ccccc1)[*:2]; X2 = O=C([C@H](Cc1ccc(C(F)(F)F)nc1)N[*:1])[*:2]; Asn(3S-OH) = NC(=O)[C@@H](O)[C@H](N)C(=O)O; Leu(3R-OH) = CC(C)[C@@H](O)[C@H](N)C(=O)O; X1 = Cc1cccc(C[C@H](N[*:1])C(=O)[*:2])n1; dAla(TMS) = C[Si](C)(C)C[C@@H](N)C(=O)O; d(tBuAla) = CC(C)(C)C[C@@H](N)C(=O)O; tBuAla = CC(C)(C)C[C@H](N)C(=O)O; 3Pal = N[C@@H](Cc1cccnc1)C(=O)O; aThr = C[C@H](O)[C@H](N)C(=O)O

Tests used:
E. faecalis ICB 27159 = type: cell-based, Entercococcus faecalis
Procedure: (§1) Determination of the Minimum Inhibitory Concentration (MIC):
(§2) The MIC is determined in the liquid dilution test in accordance with the NCCLS guidelines. Overnight cultures of Staphylococcus aureus 133, Entercococcus faecalis 27159, E. faecium and Streptococcus pneumoniae G9a are incubated with the described test substances in a 1:2 dilution series. The MIC determination is carried out with a cell count of 10^5 microorganisms per ml in Isosensitest medium (Difco, Irvine/USA), with the exception of S. pneumoniae which is tested in BHI broth (Difco, Irvine/USA) with 10% bovine serum at a cell count of 10^6 microorganisms per ml. The cultures are incubated at 37° C. for 18-24 hours, S. pneumoniae in the presence of 10% CO2.
(§3) The lowest substance concentration in each case at which visible bacterial growth […] is defined as the MIC. The MIC values are reported in μg/ml.

[1] = system: Staphylococcus aureus 133; type: cell-based
Procedure: as §1, §2, §3

[2] = system: Streptococcus pneumoniae G9a; type: cell-based
Procedure: as §1, §2, §3

E. faecium L4001 = type: cell-based
Procedure: as §1, §2, §3

[3] = Isosensitest medium, 10^5 microorganisms per ml, 37° C., 18-24 hours
[4] = BHI broth with 10% bovine serum, 10^6 microorganisms per ml, 37° C., 18-24 hours, 10% CO2

Row | SMILES | MIC E. faecalis ICB 27159 (E. faecalis ICB 27159; ICB 27159) | MIC S. aureus 133 [1]; 133 | MIC S. pneumoniae G9a ([2]; G9a) | MIC E. faecalis ICB 27159 (E. faecalis ICB 27159; [3]) | MIC S. aureus 133 [1, 3] | MIC S. pneumoniae G9a [2, 4] | MIC E. faecium L4001 (E. faecium L4001; [3]) | MIC E. faecium L4001 (E. faecium L4001; L4001)
1 | CC[C@H](C)[C@@H]1NC(=O)[C@@H](CCCNC(=N)N)NC(=O)[C@H](CC(C)C)NC(=O)[C@H]([C@H](O)C(C)C)NC(=O)[C@@H](NC(=O)[C@H](Cc2cccc(C)n2)NC(=O)[C@H](N)CC(C)(C)C)[C@@H](c2ccccc2)NC(=O)[C@H](CO)NC(=O)[C@H]([C@H](O)C(N)=O)NC(=O)CNC(=O)[C@H]([C@H](C)O)NC1=O.O=C(O)C(F)(F)F.O=C(O)C(F)(F)F.O=C(O)C(F)(F)F [Example 6] (H-[d(tBuAla)][X1][Phe(βR-NH)][Leu(3R-OH)]L[dR]I[aThr]G[Asn(3S-OH)]S; lactam 3-C) | 0.5 µg/mL | 0.25 µg/mL | 0.25 µg/mL |  |  |  |  | 
2 | CC[C@H](C)[C@@H]1NC(=O)[C@@H](CCCNC(=N)N)NC(=O)[C@H](CC(C)C)NC(=O)[C@H]([C@H](O)C(C)C)NC(=O)[C@@H](NC(=O)[C@H](Cc2cccnc2)NC(=O)[C@H](N)C[Si](C)(C)C)[C@@H](c2ccccc2)NC(=O)[C@H](CO)NC(=O)[C@H]([C@H](O)C(N)=O)NC(=O)CNC(=O)[C@H]([C@H](C)O)NC1=O.O=C(O)C(F)(F)F.O=C(O)C(F)(F)F.O=C(O)C(F)(F)F [Example 3] (H-[dAla(TMS)][3Pal][Phe(βR-NH)][Leu(3R-OH)]L[dR]I[aThr]G[Asn(3S-OH)]S; lactam 3-C) |  |  |  | 2 µg/mL | 0.125 µg/mL | 0.25 µg/mL |  | 
3 | CC[C@H](C)[C@@H]1NC(=O)[C@@H](CCCNC(=N)N)NC(=O)[C@H](CC(C)C)NC(=O)[C@H]([C@H](O)C(C)C)NC(=O)[C@@H](NC(=O)[C@H](CC(C)(C)C)NC(=O)[C@H](N)CC(C)(C)C)[C@@H](c2ccccc2)NC(=O)[C@H](CO)NC(=O)[C@H]([C@H](O)C(N)=O)NC(=O)CNC(=O)[C@H]([C@H](C)O)NC1=O [Example 1, [3-tert-Butyl-D-alanyl]-[3-tert-butyl-L-alanyl]-[(3R)-3-amino-L-phenylalanyl)]-[(3R)-3-hydroxy-L-leucyl]-L-leucyl-D-arginyl-L-isoleucyl-L-allothreonyl-glycyl-[(3S)-3-hydroxy-L-asparaginyl]-L-serine C^1.11—N^3.3-lactam bistrifluoroacetate] (H-[d(tBuAla)][tBuAla][Phe(βR-NH)][Leu(3R-OH)]L[dR]I[aThr]G[Asn(3S-OH)]S; lactam 3-C) |  |  |  | 0.25 µg/mL (≈ 0.192 µM) | 0.5 µg/mL (≈ 0.384 µM) | 0.063 µg/mL (≈ 0.0483 µM) | 0.25 µg/mL (≈ 0.192 µM) | 
4 | CC[C@H](C)[C@@H]1NC(=O)[C@@H](CCCNC(=N)N)NC(=O)[C@H](CC(C)C)NC(=O)[C@H]([C@H](O)C(C)C)NC(=O)[C@@H](NC(=O)[C@H](CC(C)C)NC(=O)[C@H](N)CC(C)C)[C@@H](c2ccccc2)OC(=O)[C@H](CO)NC(=O)[C@H]([C@H](O)C(N)=O)NC(=O)CNC(=O)[C@H]([C@H](C)O)NC1=O [Example 1A, reference compound] (H-[dL]L[Phe(3R-OH)][Leu(3R-OH)]L[dR]I[aThr]G[Asn(3S-OH)]S; ester 3-C) | 0.5 µg/mL (≈ 0.392 µM) | 0.5 µg/mL (≈ 0.392 µM) | 0.063 µg/mL (≈ 0.0494 µM) |  |  |  |  | 0.5 µg/mL (≈ 0.392 µM)
5 | CC[C@H](C)[C@@H]1NC(=O)[C@@H](CCCNC(=N)N)NC(=O)[C@H](CC(C)C)NC(=O)[C@H]([C@H](O)C(C)C)NC(=O)[C@@H](NC(=O)[C@H](CC(C)(C)C)NC(=O)[C@H](N)CC(C)C)[C@@H](c2ccccc2)NC(=O)[C@H](CO)NC(=O)[C@H]([C@H](O)C(N)=O)NC(=O)CNC(=O)[C@H]([C@H](C)O)NC1=O.O=C(O)C(F)(F)F.O=C(O)C(F)(F)F [Example 9] (H-[dL][tBuAla][Phe(βR-NH)][Leu(3R-OH)]L[dR]I[aThr]G[Asn(3S-OH)]S; lactam 3-C) | 0.5 µg/mL | 0.25 µg/mL | 0.125 µg/mL |  |  |  |  | 
6 | CC[C@H](C)[C@@H]1NC(=O)[C@@H](CCCNC(=N)N)NC(=O)[C@H](CC(C)C)NC(=O)[C@H]([C@H](O)C(C)C)NC(=O)[C@@H](NC(=O)[C@H](Cc2ccc(C(F)(F)F)nc2)NC(=O)[C@H](N)CC(C)(C)C)[C@@H](c2ccccc2)NC(=O)[C@H](CO)NC(=O)[C@H]([C@H](O)C(N)=O)NC(=O)CNC(=O)[C@H]([C@H](C)O)NC1=O.O=C(O)C(F)(F)F.O=C(O)C(F)(F)F [Example 7] (H-[d(tBuAla)][X2][Phe(βR-NH)][Leu(3R-OH)]L[dR]I[aThr]G[Asn(3S-OH)]S; lactam 3-C) | 0.25 µg/mL | 0.125 µg/mL | 0.125 µg/mL |  |  |  |  | 
